Test results taken from ChEMBL document CHEMBL1159296, “A Revised Structure for Rhinacanthone” (1995).

Tested on: Pyricularia oryzae
Experiment: Antifungal activity against Pyricularia oryzae assessed as inhibition of spore germination at 10 ppm
Format: functional

CC1(C)COC2=C(C1)C(=O)C(=O)c1ccccc12 [RHINACANTHONE]
inhibition at 10 ppm: 100%
